This is an account of results in ChEMBL document CHEMBL1772937, “Fingolimod (FTY720): a recently approved multiple sclerosis drug based on a fungal secondary metabolite” (J Nat Prod, 2011).

The source made the active and inactive calls. No cut-off for these calls is given here.

Data set [1] relates to Rattus norvegicus. The experiment in a line: Toxicity in ip dosed F344 rat lateral thorax transplanted with dorsal skin of LEW rat assessed as concentration required for cause death. Format: organism-based. The settings on record: in vivo.
In data set [2] the test system is Rattus norvegicus. As to the kind of experiment: Immunosuppressive activity in F344 rat lateral thorax transplanted with dorsal skin of LEW rat assessed as increase of skin graft survival time at 1 mg/kg, ip. Format: functional. The note with it: route intraperitoneal.
The test system of data set [3] is Rattus norvegicus. The experiment in a line: Immunosuppressive activity in F344 rat lateral thorax transplanted with dorsal skin of LEW rat assessed as increase of skin graft survival time at 3 mg/kg, ip. It counts as functional. The settings on record: route intraperitoneal.
A short description of data set [4]: Immunosuppressive activity in BALB/c/C57BL/6 mouse T cells assessed as inhibition of alloantigen-induced cell proliferation after 96 hrs by measuring [3H]thymidine uptake by mixed lymphocyte reaction assay. It counts as functional, cell-based. The settings on record: BALB/c/C57BL/6, T-cell.
For data set [5], the system named is spleen. The experiment in a line: Inhibition of serine palmitoyltransferase in mouse spleen cells. It counts as cell-based.
Data set [6] deals with Rattus norvegicus. As to the kind of experiment: Immunosuppressive activity in rat assessed as increase of skin graft survival time at 0.1 mg/kg. Format: functional.
Data set [7] has as its system MCF7. As to the kind of experiment: Antiproliferative activity against human MCF7 cells assessed as growth inhibition after 78 hrs by WST-1 assay. Format: functional, cell-based.
For data set [8], the system named is MDA-MB-231. The experiment in a line: Antiproliferative activity against human MDA-MB-231 cells assessed as growth inhibition after 78 hrs by WST-1 assay. Format: functional, cell-based.
The test system of data set [9] is SK-BR-3. The experiment in a line: Antiproliferative activity against human SK-BR-3 cells assessed as growth inhibition after 78 hrs by WST-1 assay. Format: functional, cell-based.
The subject of data set [10] is HCT-116. The experiment in a line: Antiproliferative activity against human HCT116 cells assessed as growth inhibition after 78 hrs by WST-1 assay. It counts as functional, cell-based.
The test system of data set [11] is SW-620. As to the kind of experiment: Antiproliferative activity against human SW620 cells assessed as growth inhibition after 78 hrs by WST-1 assay. It counts as functional, cell-based.
A short description of data set [12]: (§1) Antiproliferative activity human LNCAP-AI cells assessed as growth inhibition after 78 hrs by WST-1 assay. Format: functional, cell-based.
The subject of data set [13] is MGC-803. As to the kind of experiment: Antitumor activity against human MGC803 cells xenografted in nude mouse assessed as inhibition of tumor growth at 10 mg/kg for 20 days. Further details: dose 10 mg/kg. It counts as functional, organism-based.
In data set [14] the test system is Mus musculus. The experiment in a line: Toxicity in human MGC803 cells xenografted nude mouse at 10 mg/kg for 20 days. Format: organism-based, MGC-803. Further details: dose 10 mg/kg. The settings on record: in vivo, 480 h.
Data set [15] has as its system LNCAP-AI. Described as §1. Format: functional, cell-based.

As to `CCCCCCCCCCCCCCCCCCC(N)(CO)CO`, in [1], the Activity came out at 10 mg/kg.
Turning to `C/C=C/C[C@@H](C)[C@@H](O)[C@H]1C(=O)N[C@@H](CC)C(=O)N(C)CC(=O)N(C)[C@@H](CC(C)C)C(=O)N[C@@H](C(C)C)C(=O)N(C)[C@@H](CC(C)C)C(=O)N[C@@H](C)C(=O)N[C@H](C)C(=O)N(C)[C@@H](CC(C)C)C(=O)N(C)[C@@H](CC(C)C)C(=O)N(C)[C@@H](C(C)C)C(=O)N1C` [CYCLOSPORINE], the Time in data set [2] is 7.3 days; in [3], 10.8 days.
Consider `CCCCCCC(=O)CCCCCC/C=C/C[C@@H](O)[C@H](O)[C@@](N)(CO)C(=O)O` [MYRIOCIN], for which, in [4], the IC50 is 0.003 µM. Also, the Activity in [1] is 1 mg/kg. Besides, the inhibition result in data set [5] was “Active”. In addition, in [6], the Time came to 2 days.
On to `CCCCCCCCc1ccc(CCC(N)(CO)CO)cc1` [FINGOLIMOD], for which the IC50 in data set [4] is 0.0061 µM; in [7] (MCF7, 78 h) it was 5 µM; in data set [8] (MDA-MB-231, 78 h), 5 µM; in [9] (SK-BR-3, 78 h), 5 µM; in data set [10] (HCT-116, 78 h), 5 µM; in [11] (SW-620, 78 h), 5 µM. Moreover, in [12], the half-maximal inhibitory concentration (IC50) worked out at 5 µM. The Time was 39.5 days in [2] and 52 days in data set [3]. Besides, in data set [5], the inhibition result is “inactive”. In addition, in [13], the “growth inhibition (GI)” value is “Active”. The Activity result in [14] is “Toxic”.
On to `CCCCCCC(O)CCCCCCCCC[C@@H](O)[C@H](O)C(N)(CO)CO` (stereo partly drawn), for which the Activity in data set [1] was found to be 100 mg/kg. Further, the Time is 9.2 days in data set [2] and 11 days in [3].
With `CCCCCCCCc1ccc(CC[C@](N)(CO)COP(=O)(O)O)cc1`, the “growth inhibition (GI)” value in data set [7], in data set [8], in data set [9], in [10] and in [11] was “inactive” throughout.
For `CCCCCCCCCCCCCCC(N)(CO)CO`, in data set [1], the Activity was 10 mg/kg. For the same molecule, the values for the Time in [2] and in data set [3] were 37.3 days and 45.5 days, respectively. Besides, in [5], the inhibition result was “inactive”.
With `CCCCCCCCc1ccc(CC[C@](N)(/C=C/P(=O)(O)O)CO)cc1`, the “growth inhibition (GI)” value in data set [7] and in data set [15] was “inactive” throughout.
